Assay [1] addresses T1, wt human TYK2, catalytic site (Homo sapiens, UniProt P29597).
T1 construct: wt human TYK2, catalytic site; purchased SignalChem
T1 sequence (P29597 897-1176 limits assumed): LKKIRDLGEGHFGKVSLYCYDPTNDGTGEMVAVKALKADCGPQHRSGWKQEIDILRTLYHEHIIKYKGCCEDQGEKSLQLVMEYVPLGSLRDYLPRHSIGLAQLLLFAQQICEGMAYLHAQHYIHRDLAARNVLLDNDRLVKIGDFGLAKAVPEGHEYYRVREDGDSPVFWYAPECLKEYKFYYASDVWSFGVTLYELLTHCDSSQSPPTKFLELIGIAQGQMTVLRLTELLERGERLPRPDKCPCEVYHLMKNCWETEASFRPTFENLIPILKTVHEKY
The assay can be described thus: HTRF KinEASE assay, TYK2. It is filed as biochemical. As to conditions: 1 μM ATP; read-out: IC50, Activity Toward TYK2. A digest of the protocol: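 Kinase reaction run at room temperature for at least 30 min: 2 nM TYK2 with 1 μM ATP, or 1 nM JAK2 with 100 μM ATP, each with 1 μM biotin-TK substrate. Phosphorylation detected by HTRF (60 min antibody/XL665) and evaluated from emission ratios.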
For orientation: TR-FRET usually uses a lanthanide donor and a delayed reading to cut background.

Assay [2] addresses T2, wt human JAK1, catalytic site (Homo sapiens, UniProt P23458).
T2 construct: wt human JAK1, catalytic site; purchased ThermoFisher
The experiment in a line: HTRF KinEASE assay, JAK1. It is filed as biochemical. As to conditions: 2.5 μM ATP; read-out: IC50, Activity Toward JAK1. A digest of the protocol:
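Compounds in DMSO dilution were mixed with kinase, biotin-TK substrate and ATP and reacted for ≥30 min at room temperature. Detection reagents (antibody, streptavidin-XL665) were read 60 min later as HTRF, with emission ratios analysed per KinEASE protocol.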

T2 sequence (P23458 875-1153 limits assumed): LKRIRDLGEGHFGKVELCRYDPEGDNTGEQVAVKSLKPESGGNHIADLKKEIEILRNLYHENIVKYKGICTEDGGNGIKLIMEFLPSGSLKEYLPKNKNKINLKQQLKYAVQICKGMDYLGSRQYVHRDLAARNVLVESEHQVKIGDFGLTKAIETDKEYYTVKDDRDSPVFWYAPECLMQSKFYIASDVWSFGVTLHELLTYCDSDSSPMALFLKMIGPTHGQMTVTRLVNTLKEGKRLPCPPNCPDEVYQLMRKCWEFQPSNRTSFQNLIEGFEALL

On to `Cc1nc(C(F)(F)F)nn1-c1ccc(Nc2cn(-c3c(Cl)cccc3Cl)nc2C(N)=O)cc1` [compound 275, 1-(2,6-dichlorophenyl)-4-((4-(5-methyl-3-(trifluoromethyl)-1H-1,2,4-triazol-1-yl)phenyl)amino)-1H-pyrazole-3-carboxamide], for which the values for the IC50 in assay [1] and in assay [2] were under 10 nM and 10 to 100 nM, respectively.

Turning to `CCc1nc(C(F)(F)F)nn1-c1ccc(Nc2cn(-c3c(Cl)cccc3Cl)nc2C(N)=O)cc1` [compound 277, 1-(2,6-dichlorophenyl)-4-((4-(5-ethyl-3-(trifluoromethyl)-1H-1,2,4-triazol-1-yl)phenyl)amino)-1H-pyrazole-3-carboxamide], the IC50 in assay [1] was under 10 nM; in assay [2], 100 to 1000 nM.

As to `COCc1nc(C(F)(F)F)nn1-c1ccc(Nc2cn(-c3c(Cl)cccc3Cl)nc2C(N)=O)cc1` [compound 281, 1-(2,6-dichlorophenyl)-4-((4-(5-(methoxymethyl)-3-(trifluoromethyl)-1H-1,2,4-triazol-1-yl)phenyl)amino)-1H-pyrazole-3-carboxamide], the IC50 is under 10 nM in assay [1] and 100 to 1000 nM in assay [2].

Regarding `CCc1ncnn1-c1ccc(Nc2cn(-c3c(Cl)cccc3Cl)nc2C(N)=O)cc1` [compound 291, 1-(2,6-dichlorophenyl)-4-((4-(5-ethyl-1H-1,2,4-triazol-1-yl)phenyl)amino)-1H-pyrazole-3-carboxamide], the IC50 is 10 to 100 nM in assay [1] and under 10 nM in assay [2].

Take `COCn1cc(C(F)(F)F)nc1-c1ccc(Nc2cn(-c3c(Cl)cccc3Cl)nc2C(N)=O)cc1` [compound 292, 1-(2,6-dichlorophenyl)-4-((4-(1-(methoxymethyl)-4-(trifluoromethyl)-1H-imidazol-2-yl)phenyl)amino)-1H-pyrazole-3-carboxamide]: the IC50 is under 10 nM in assay [1] and 10 to 100 nM in assay [2].

Regarding `CCn1cc(C(F)(F)F)nc1-c1ccc(Nc2cn(-c3c(Cl)cccc3Cl)nc2C(N)=O)cc1` [compound 293, 1-(2,6-dichlorophenyl)-4-((4-(1-ethyl-4-(trifluoromethyl)-1H-imidazol-2-yl)phenyl)amino)-1H-pyrazole-3-carboxamide], the IC50 in assay [1] and in assay [2] was 10 to 100 nM throughout.

On to `Cn1cc(C(F)(F)F)nc1-c1ccc(Nc2cn(-c3c(Cl)cccc3Cl)nc2C(N)=O)cc1` [compound 294, 1-(2,6-dichlorophenyl)-4-((4-(1-methyl-4-(trifluoromethyl)-1H-imidazol-2-yl)phenyl)amino)-1H-pyrazole-3-carboxamide], for which the IC50 was under 10 nM in assay [1] and 10 to 100 nM in assay [2].

In the case of `CN(C)Cc1nc(C(F)(F)F)nn1-c1ccc(Nc2cn(-c3c(Cl)cccc3Cl)nc2C(N)=O)cc1` [compound 297, 1-(2,6-dichlorophenyl)-4-((4-(5-((dimethylamino)methyl)-3-(trifluoromethyl)-1H-1,2,4-triazol-1-yl)phenyl)amino)-1H-pyrazole-3-carboxamide], the IC50 in assay [1] was under 10 nM; in assay [2], 100 to 1000 nM.

On to `COCc1nc(C(F)(F)F)nn1-c1ccc(Nc2cn(-c3c(F)cccc3Cl)nc2C(N)=O)cc1` [compound 298, 1-(2-chloro-6-fluorophenyl)-4-((4-(5-(methoxymethyl)-3-(trifluoromethyl)-1H-1,2,4-triazol-1-yl)phenyl)amino)-1H-pyrazole-3-carboxamide], for which the figures for the IC50 in assay [1] and in assay [2] were 10 to 100 nM and 100 to 1000 nM, respectively.

Take `COCc1ncnn1-c1ccc(Nc2cn(-c3c(Cl)cccc3Cl)nc2C(N)=O)cc1` [compound 300, 1-(2,6-dichlorophenyl)-4-((4-(5-(methoxymethyl)-1H-1,2,4-triazol-1-yl)phenyl)amino)-1H-pyrazole-3-carboxamide]: the IC50 lay in the range of 10 to 100 nM in assay [1] and 100 to 1000 nM in assay [2].

For the compound `COCCn1cc(C(F)(F)F)nc1-c1ccc(Nc2cn(-c3c(Cl)cccc3Cl)nc2C(N)=O)cc1` [compound 307, 1-(2,6-dichlorophenyl)-4-((4-(1-(2-methoxyethyl)-4-(trifluoromethyl)-1H-imidazol-2-yl)phenyl)amino)-1H-pyrazole-3-carboxamide], the values for the half-inhibitory concentration (IC50) in assay [1] and in assay [2] were 10 to 100 nM and 100 to 1000 nM, respectively.

On to `CC(C)(C)OC(=O)N[C@@H]1CCN(C(=O)c2ccc(Nc3cn(-c4c(Cl)cccc4Cl)nc3C(N)=O)cc2)C1` [compound 324, (R)-tert-butyl_(1-(4-((3-carbamoyl-1-(2,6-dichlorophenyl)-1H-pyrazol-4-yl)amino)benzoyl)pyrrolidin-3-yl)carbamate], for which the IC50 in assay [1] and in assay [2] was 100 to 1000 nM each time.

Consider `CC(C)(C)OC(=O)N[C@H]1CCN(C(=O)c2ccc(Nc3cn(-c4c(Cl)cccc4Cl)nc3C(N)=O)cc2)C1` [compound 325, (S)-tert-butyl_(1-(4-((3-carbamoyl-1-(2,6-dichlorophenyl)-1H-pyrazol-4-yl)amino)benzoyl)pyrrolidin-3-yl)carbamate], for which the IC50 in assay [1] fell in the range of 10 to 100 nM; in assay [2], 100 to 1000 nM.

Turning to `COCCc1nc(C(F)(F)F)nn1-c1ccc(Nc2cn(-c3c(Cl)cccc3Cl)nc2C(N)=O)cc1` [compound 330, 1-(2,6-dichlorophenyl)-4-((4-(5-(2-methoxyethyl)-3-(trifluoromethyl)-1H-1,2,4-triazol-1-yl)phenyl)amino)-1H-pyrazole-3-carboxamide], the IC50 in assay [1] and in assay [2] was 10 to 100 nM in each case.

For the compound `Cc1cnncc1-c1ccc(Nc2cn(-c3c(Cl)cccc3Cl)nc2C(N)=O)cc1` [compound 340, 1-(2,6-dichlorophenyl)-4-((4-(5-methylpyridazin-4-yl)phenyl)amino)-1H-pyrazole-3-carboxamide], the IC50 in assay [1] was 10 to 100 nM; in assay [2], 100 to 1000 nM.

As to `CC(C)c1ncnn1-c1ccc(Nc2cn(-c3c(Cl)cccc3Cl)nc2C(N)=O)cc1` [compound 341, 1-(2,6-dichlorophenyl)-4-((4-(5-isopropyl-1H-1,2,4-triazol-1-yl)phenyl)amino)-1H-pyrazole-3-carboxamide], the IC50 in assay [1] is 10 to 100 nM; in assay [2], 100 to 1000 nM.

`NC(=O)c1nn(-c2c(Cl)cccc2Cl)cc1Nc1ccc(-n2ncnc2CO)cc1` [compound 348, 1-(2,6-dichlorophenyl)-4-((4-(5-(hydroxymethyl)-1H-1,2,4-triazol-1-yl)phenyl)amino)-1H-pyrazole-3-carboxamide]: the IC50 in assay [1] was under 10 nM; in assay [2], 10 to 100 nM.

As for `Cc1cnncc1-c1ccc(Nc2cn(-c3c(Cl)cccc3Cl)nc2C(N)=O)cn1` [compound 350, 1-(2,6-dichlorophenyl)-4-((6-(5-methylpyridazin-4-yl)pyridin-3-yl)amino)-1H-pyrazole-3-carboxamide], the IC50 in assay [1] and in assay [2] was 100 to 1000 nM throughout.

On to `CCc1cnncc1-c1ccc(Nc2cn(-c3c(Cl)cccc3Cl)nc2C(N)=O)cn1` [compound 351, 1-(2,6-dichlorophenyl)-4-((6-(5-ethylpyridazin-4-yl)pyridin-3-yl)amino)-1H-pyrazole-3-carboxamide], for which the IC50 in assay [1] was in the range of 10 to 100 nM; in assay [2], 100 to 1000 nM.

Consider `NC(=O)c1nn(-c2c(Cl)cccc2Cl)cc1Nc1ccc(-c2ccnnc2)nc1` [compound 352, 1-(2,6-dichlorophenyl)-4-((6-(pyridazin-4-yl)pyridin-3-yl)amino)-1H-pyrazole-3-carboxamide], for which the IC50 in assay [1] and in assay [2] was 100 to 1000 nM throughout.

As for `CN(C)[C@H]1CCN(C(=O)c2ccc(Nc3cn(-c4c(Cl)cccc4Cl)nc3C(N)=O)cn2)C1` [compound 354, (S)-1-(2,6-dichlorophenyl)-4-((6-(3-(dimethylamino)pyrrolidine-1-carbonyl)pyridin-3-yl)amino)-1H-pyrazole-3-carboxamide], the IC50 in assay [1] fell in the range of 10 to 100 nM; in assay [2], 100 to 1000 nM.

For `NC(=O)c1nn(-c2c(Cl)cccc2Cl)cc1Nc1ccc(C(=O)N2CC[C@@H](N3CCCC3)C2)nc1` [compound 356, (R)-4-((6-([1,3′-bipyrrolidine]-1′-carbonyl)pyridin-3-yl)amino)-1-(2,6-dichlorophenyl)-1H-pyrazole-3-carboxamide], the IC50 in assay [1] lay within 10 to 100 nM; in assay [2] it was 100 to 1000 nM.

Take `NC(=O)c1nn(-c2c(Cl)cccc2Cl)cc1Nc1ccc(C(=O)N2CC[C@H](N)C2)nc1` [compound 357, (S)-4-((6-(3-aminopyrrolidine-1-carbonyl)pyridin-3-yl)amino)-1-(2,6-dichlorophenyl)-1H-pyrazole-3-carboxamide]: the IC50 in assay [1] was 10 to 100 nM; in assay [2], 100 to 1000 nM.

Regarding `NC(=O)c1nn(-c2c(Cl)cccc2Cl)cc1Nc1ccc(C(=O)N2CCCC2)nc1` [compound 358, 1-(2,6-dichlorophenyl)-4-((6-(pyrrolidine-1-carbonyl)pyridin-3-yl)amino)-1H-pyrazole-3-carboxamide], the IC50 lay in the range of 10 to 100 nM in assay [1] and 100 to 1000 nM in assay [2].

`Cn1cnnc1-c1ccc(Nc2cn(-c3c(Cl)cccc3Cl)nc2C(N)=O)cn1` [compound 360, 1-(2,6-dichlorophenyl)-4-((6-(4-methyl-4H-1,2,4-triazol-3-yl)pyridin-3-yl)amino)-1H-pyrazole-3-carboxamide]: the IC50 lay in the range of 10 to 100 nM in assay [1] and 100 to 1000 nM in assay [2].

The term IC50 denotes the point on the concentration scale where inhibition reaches its midpoint.

Source of the values: patent US20230373985A1 (Origenis Gmbh, priority 2020, published 2023).
